Measured values reported in patent US20240426807A1, “SCREENING SYSTEM” (Givaudan SA, priority 2021, published 2024).

Molecular target: T1, pool of cells with OR5A1, OR5A2, OR5AN1, OR6Y1, OR10G4, OR10G7 or OR10G9 (Homo sapiens, UniProt Q8NGN6)
T1 construct: expressed in transfected cells; host or cells: HEK293T stably expressing RTP1S and RTP2; 7 separate transfections pooled
T1 sequence (Q8NGN6 1-311): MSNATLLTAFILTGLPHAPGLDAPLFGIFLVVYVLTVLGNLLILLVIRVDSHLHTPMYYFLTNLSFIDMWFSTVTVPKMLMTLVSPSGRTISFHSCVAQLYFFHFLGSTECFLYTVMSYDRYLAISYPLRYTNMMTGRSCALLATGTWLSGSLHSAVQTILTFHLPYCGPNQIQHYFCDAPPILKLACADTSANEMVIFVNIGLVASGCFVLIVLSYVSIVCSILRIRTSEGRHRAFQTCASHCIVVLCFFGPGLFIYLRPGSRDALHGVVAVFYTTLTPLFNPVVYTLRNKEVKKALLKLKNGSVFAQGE
Assay: Selection of cognate-receptor cells from a pool of OR-expressing cells with the target ligand and puromycin
Assay type: cell-based
Settings: 1 μM eugenol, puromycin 1 μg/ml, pool of 7 OR transfections
Experimental: For many ligands the cognate OR receptors are not known (“orphan receptors”), or it is unknown among a pool of receptors, which one has the best affinity for a ligand of interest, e.g. a perfumery note of particular interest. Thus, the ligand-induced selection pressure can be used to enrich a specific OR-expressing cell from a pool of OR-expressing cells in the presence of a ligand of interest. HEK293T cells stably expressing RTP1S and RTP2 were seeded into 7 wells of 6-well plates at 330,000 cells/well.
The next day, the cells of each well were transfected with 2 μg of a PvuI-linearized pGL4.29-CRE-Puro-Hygro-OR construct harboring one of the receptors OR5A1 (NCBI Genbank Gene ID: 219982), OR5A2 (NCBI Genbank Gene ID: 219981), OR5AN1 NCBI Genbank Gene ID: 390195, SEQ ID NO: 70), OR6Y1 (NCBI Genbank Gene ID: 391112), OR10G4 (NCBI Genbank Gene ID: 390264, SEQ ID NO: 72), OR10G7 (NCBI Genbank Gene ID: 390265, SEQ ID NO: 71), or OR10G9 (NCBI Genbank Gene ID: 219870). 24 h after transfection, the cells of all 7 transfections were harvested and pooled. 350 cells of this pool of cells with different OR genes inserted were then seeded into each well of seven 96-well plates.
3 days later, cells were stimulated with ligands for either OR5AN1 (10 μM musk ketone), OR10G7 (1 μM eugenol), or OR10G4 (100 μM vanitrope). One plate was treated with DMSO only. 6h after the addition of the OR ligands, puromycin was added to each plate at a final concentration of 1 μg/ml. On every day during the following week, the medium on all plates was replaced with fresh medium containing the corresponding ligand and puromycin. The plates were then searched for wells containing only a single colony of puromycin-resistant cells. The cells of those colonies were transferred to larger plates and grown until they had multiplied to about 8 Mio cells. The genomic DNA of 2 Mio cells of each clone were isolated using the Puregene kit according to the manufacturer's protocol. […]

C=CCc1ccc(O)c(OC)c1 [eugenol]
clones selected with the ligand that contained OR10G7: 8 out of 8
